# According to US20200032271A1, “COMBINATION THERAPY WITH LIPOSOMAL ANTISENSE OLIGONUCLEOTIDES” (Bio-Path Holdings, Inc., priority 2016, published 2020):
# Where “and” joins values, the source holds several entries; their conditions need not be identical. Equal values may be shown once. [PEt] = P-ethoxy (ethyl phosphotriester) internucleoside linkage
# Assays:
# Grb2 [1] = assay: Selective inhibition of Grb2 protein production (SDS-PAGE, blot) in BV173 and ALL-1 cells; format: cell-based, human; settings: 4 to 8 μM, three days, Crk1 as control protein
# Protocol: FIGS. 5A-B. Selective inhibition of the production of Grb2 proteins. […] After three days of culture, protein-containing layers were prepared and subjected to SDS-PAGE and transferred to nitrocellulose membranes. Blots were cut into sections and incubated with antibodies specific for Grb2 (target) or Crk1 (control) protein. BP1001 is a neutral liposome incorporated with the nuclease-resistant, hydrophobic P-ethoxy antisense oligos targeted to Grb2 mRNA.
# [2] = tested on: 32Dp210 Bcr-Abl positive leukemia cells; assay: Survival of mice injected with 32Dp210 Bcr-Abl positive leukemia cells, first study; format: in vivo
# Protocol: In one study, mice injected with 32Dp210 Bcr-Abl positive leukemia cells were treated with BP1001 (15 mg/kg/dose) or control (empty DOPC liposomes) intravenously beginning one day after injection of tumor cells, twice weekly for up to 6 weeks Mice were observed daily for moribundity/morbidity. All surviving mice were euthanized on Day 40. In mice injected with 32Dp210 Bcr-Abl positive leukemia cells, 60% treated with BP1001 survived to 40 days (end of study) compared to 17% of mice receiving empty liposomes. Mean survival duration in these treated animals was 31.6±13.1 days compared to 23.7±8.3 days in the empty liposome group (FIG. 6A).
# [3] = Multiple-dose toxicity study in mice; settings: mouse
# [4] = tested on: phosphorylated Erk1,2 (pErk); assay: Flow cytometry of pErk levels in circulating leukemia cells of patients; format: in vivo, human; settings: for pErk decrease (%) (Day 15) / pErk decrease (%) (Day 22 or end-of-treatment): individual subjects
# From the text: (§1) Flow cytometry was used to determine the levels of Grb2 and pErk proteins in the circulating leukemia cells of patients who were on BP1001 single agent therapy, and were reported as median fluorescent intensity (MFI). MFI of Grb2 and pErk during treatment were compared to those at baseline.
# (§2) Peripheral blood was collected from patients in cohorts 3, 4, 5, and 6, before being dosed on Cycle 1 days 1, 8, 15 and 22, and Cycle 2 day 1. White blood cells were isolated from peripheral blood using BD Vacutainer CPT cell preparation tubes with sodium heparin (BD Dickinson), fixed and stored in −80° C. freezer. Flow cytometry was utilized to determine Grb2 and phosphorylated Erk1,2 (pErk) levels in CD33-expressing cells using a validated method (Flow Contract Site Laboratory, Bothell, Wash., USA).
# as §1, with “utilized” for “used”, “baseline (Table 7).” for “baseline.”
# [5] = Protocol: The potential toxicity of a twice weekly intravenously (slow bolus) administered BP1001 in Dutch Belted rabbits was conducted. BP1001 was administered over a 28-day period followed by a 2-week recovery phase.
# Doses were administered on Study Days 1, 3, 8, 10, 15, 17, 22, and 24. The first day of dosing on the study was designated as Study Day 1. The doses were given at approximately the same time each day. Individual dose volumes were calculated based on the most recently recorded body weight for each animal. Study Day 1 dose levels were calculated on a pretest body weight.
# [6] = tested on: imatinib-sensitive and imatinib-resistant CML cell lines; assay: Growth inhibition and ERK1,2/Akt phosphorylation in CML cell lines; format: cell-based; settings: preclinical studies
# From the text: (§3) BP1001 is a neutral liposome incorporated with the nuclease-resistant, hydrophobic P-ethoxy antisense oligos targeted to Grb2 mRNA. In preclinical studies, BP1001 was effective in inducing growth inhibition and decreasing ERK1,2 and Akt phosphorylation in imatinib-sensitive and imatinib-resistant CML cell lines.
# ALL-1 = assay: Inhibition of proliferation of leukemic cell lines by BP1001; format: cell-based, human; settings: 5 days
# From the text: as §3
# K562 = assay: as above; format: cell-based, human; settings: 4 days
# From the text: as §3
# BV173 = assay: as above; format: cell-based, human; settings: 5 days
# From the text: as §3
# [7] = tested on: HL60 (Ph-negative, Bcr-Abl negative); assay: as above; format: cell-based, human; settings: [BP1001] 0-12 μM, 5 days
# From the text: as §3
# [8] = tested on: 32Dp210 Bcr-Abl positive leukemia cells; assay: Survival of mice injected with 32Dp210 Bcr-Abl positive leukemia cells, second study; format: in vivo
# Protocol: In a second study in mice injected with 32Dp210 Bcr-Abl positive leukemia cells, treatment groups received BP1001 at 5, 10, or 15 mg/kg/dose administered intravenously beginning one day after injection of tumor cells, twice weekly for up to 7 weeks. Control groups received DOPC liposomes containing an oligonucleotide of random sequence (15 mg/kg/dose) on the same schedule. Mice were observed daily for moribundity/morbidity. Surviving mice in the control groups were euthanized on Day 41, and in the treatment groups on Day 48.
# CHO cells = assay: In vitro mammalian chromosome aberration test; format: cell-based; settings: non-activated and S9-activated
# Protocol: BP1001 was tested in the chromosome aberration assay using CHO cells in both the absence and presence of an Aroclor-induced S9 activation system. A preliminary toxicity test was performed to establish the dose range for the chromosome aberration assay. The chromosome aberration assay was used to evaluate the clastogenic potential of the BP1001. Based on the findings of this study, BP1001 was concluded to be negative for the induction of structural and numerical chromosome aberrations in CHO cells in both the non-activated and the S9-activated test systems.
# [9] = tested on: acute myeloid leukemia (AML) cells; assay: Cytarabine cytotoxicity after BP1001 pretreatment; format: cell-based; settings: preclinical studies
# Grb2 [10] = assay: Flow cytometry of Grb2 levels in circulating leukemia cells of patients; format: in vivo, human; settings: for Grb2 decrease (%) (Day 15) / Grb2 decrease (%) (Day 22 or end-of-treatment): individual subjects
# From the text: as §1, §2
# as §1, with “utilized” for “used”, “baseline (Table 7).” for “baseline.”
# [11] = 15 mg/kg/dose i.v. twice weekly
# [12] = 15 and 25 mg oligo/kg i.v. daily for five days
# [13] = last measured sample (end of treatment or cycle 1 day 22), MFI vs baseline
substance,measurement,setting,value
"BP1001: liposome-incorporated P-ethoxy antisense oligodeoxynucleotide (5′-ATATTTGGCGATGGCTTC-3′, SEQ ID NO: 1) specific to grb2 mRNA, in neutral DOPC liposomes (DNA, all [PEt], methylation of C not given here; incorporated in neutral DOPC liposomes)",Grb2 protein production,Grb2 [1],selectively inhibit Grb2 protein production
same,Mean survival duration,[2]; [11],31.6 ± 13.1 days
same,mice surviving to 40 days (end of study),[2]; 15 mg/kg/dose i.v. twice weekly from day 1 after tumor cells,60%
same,"WBC counts at two weeks post-injection, persisting at six weeks",[3]; [12],Reduction
same,morbidity or mortality,[3]; [12],No signs of morbidity or mortality
same,drug-related lesions in examined organs,[3]; multiple i.v. 15-25 mg/kg,no drug-related lesions
same,pErk decrease (%) (Day 15),"[4]; cohort 3, 20 mg/m^2",3% and 28% and 0%
same,pErk decrease (%) (Day 22 or end-of-treatment),"[4]; cohort 3, 20 mg/m^2",45% and 35% and 0%
same,pErk decrease (%) (Day 15),"[4]; cohort 4, 40 mg/m^2",82% and 0%
same,pErk decrease (%) (Day 22 or end-of-treatment),"[4]; cohort 4, 40 mg/m^2",91% and 0% and 27%
same,pErk decrease (%) (Day 15),"[4]; cohort 5, 60 mg/m^2",0% and 51% and 55%
same,pErk decrease (%) (Day 22 or end-of-treatment),"[4]; cohort 5, 60 mg/m^2",54% and 0% and 47%
same,pErk decrease (%) (Day 15),"[4]; cohort 6, 90 mg/m^2",0% and 54% and 42%
same,pErk decrease (%) (Day 22 or end-of-treatment),"[4]; cohort 6, 90 mg/m^2",0% (2×) and 63%
same,average decrease in pErk levels,[4]; last measured sample,52%
same,samples with ≥25% decrease of pErk levels,[4]; [13],7 out of 12
same,effects on coagulation parameters,[5]; rabbit,no observed effects
same,"toxicity (clinical observations, body weights, bone marrow cytology, clinical pathology, organ weights, microscopic findings)","[5]; rabbit, 3.75, 5.00 or 7.50 mg/kg i.v. slow bolus twice weekly, 28 days",no apparent toxicity
same,"growth inhibition and decrease of ERK1,2 and Akt phosphorylation",[6],effective
same,IC50,ALL-1,4 µM
same,Decrease in viability,ALL-1; [BP1001] 0-6 μM,100%
same,IC50,K562,8 µM
same,Decrease in viability,K562; [BP1001] 0-12 μM,80%
same,IC50,BV173,8 µM
same,Decrease in viability,BV173; [BP1001] 0-10 μM,70%
same,Decrease in viability,[7],0%
same,Mean survival duration,[8]; 5 mg/kg/dose i.v. twice weekly,20.8 ± 4.7 days
same,Mean survival duration,[8]; 10 mg/kg/dose i.v. twice weekly,22.2 ± 8.7 days
same,Mean survival duration,[8]; [11],44.2 ± 8.5 days
same,mice surviving to 48 days (end of study),[8]; [11],80%
same,induction of structural and numerical chromosome aberrations,CHO cells,negative
same,effect of pretreatment on cytarabine cytotoxicity,[9],enhances cytarabine cytotoxicity
same,Grb2 decrease (%) (Day 15),"Grb2 [10]; cohort 3, 20 mg/m^2",0% (2×) and 56%
same,Grb2 decrease (%) (Day 22 or end-of-treatment),"Grb2 [10]; cohort 3, 20 mg/m^2",28% and 47% and 57%
same,Grb2 decrease (%) (Day 15),"Grb2 [10]; cohort 4, 40 mg/m^2",63% and 47%
same,Grb2 decrease (%) (Day 22 or end-of-treatment),"Grb2 [10]; cohort 4, 40 mg/m^2",54% and 0% and 34%
same,Grb2 decrease (%) (Day 15),"Grb2 [10]; cohort 5, 60 mg/m^2",0% and 57% and 54%
same,Grb2 decrease (%) (Day 22 or end-of-treatment),"Grb2 [10]; cohort 5, 60 mg/m^2",30% and 65% and 43%
same,Grb2 decrease (%) (Day 15),"Grb2 [10]; cohort 6, 90 mg/m^2",0% and 85% and 63%
same,Grb2 decrease (%) (Day 22 or end-of-treatment),"Grb2 [10]; cohort 6, 90 mg/m^2",0% and 91% and 40%
same,average decrease in Grb2 levels,Grb2 [10]; last measured sample,49%
same,samples with ≥25% decrease of Grb2 levels,Grb2 [10]; [13],10 out of 12
